Measured values published in US10328075B2, “Method of treatment and compounds for use therein” (Baker Heart and Diabetes Institute, priority 2015, dated 2019).

Key:
hFPR1 = target: T1, hFPR1 (Homo sapiens, UniProt P21462); assay: Quantification of biased agonism (operational model) at hFPR1 in CHO cells; assay type: cell-based; conditions: for Bias (away from Ca2+i), hFPR1-FlpInCHO cells in vitro: Table 9
T1 construct: expressed in transfected cells
T1 sequence (P21462 1-350): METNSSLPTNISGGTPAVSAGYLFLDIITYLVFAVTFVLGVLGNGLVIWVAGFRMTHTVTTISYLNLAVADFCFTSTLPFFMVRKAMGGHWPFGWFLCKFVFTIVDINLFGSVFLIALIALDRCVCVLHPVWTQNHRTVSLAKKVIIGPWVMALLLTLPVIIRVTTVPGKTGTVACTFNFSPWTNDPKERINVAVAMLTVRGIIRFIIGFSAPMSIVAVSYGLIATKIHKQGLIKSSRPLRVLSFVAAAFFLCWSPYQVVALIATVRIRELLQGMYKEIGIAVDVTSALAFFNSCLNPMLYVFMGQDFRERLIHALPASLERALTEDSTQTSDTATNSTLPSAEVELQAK
From the text: To quantify biased agonism mediated by each agonist across the various pathways ([Ca^2+], mobilization, pERK1/2, Akt1/2/3 and inhibition of cAMP accumulation), agonist concentration-response curves were refitted using the operation model normalized to the transduction ratio of a reference agonist (in this case, BIDI-002) as described previously (Stewart G D et al., 2009). Under these conditions, if the test agonist and the reference agonist activate the two pathways through a common receptor conformation, the log [bias factor] should be 0.0 (or bias factor different from 1.0), irrespective of differences in response amplification between pathways. In contrast, significant deviation of log [bias factor] from 0.0 (or bias factor different from 1.0) indicates the involvement of distinct conformations for the different agonists. All affinities, potencies, efficacies, and cooperativity parameters were estimated as logarithms (Christopoulos, 1998). Results are expressed as means±S.E. unless otherwise stated. Statistical analyses were by Student's t test, or one-way ANOVA followed by Dunnett's Comparison or Tukey's post-hoc test, as appropriate. Values of p<0.05 were considered statistically significant.
A “transduction ratio” is firstly derived for each response (τ/KA, where τ represents efficacy, and KA affinity, of the agonist for each GPCR conformational state), extracted from each concentration-response curve. “Bias factors” (ΔΔ(τ/KA)) were then calculated by normalizing the transduction ratio to a reference ligand (in this case, Cmpd43) and reference pathway, which here was Akt1/2/3(Thr308) phosphorylation. Lastly, bias factors were plotted on a ‘web of bias’ to visualize the potential for biased agonism. […] Under these conditions, if the test agonist and the reference agonist activate the two pathways through a common receptor conformation, the log [bias factor] should be 0.0 (i.e. the bias factor 1.0), irrespective of differences in response amplification between pathways. In contrast, significant deviation of log [bias factor] away from 0.0 (i.e. where the bias factor is different to 1.0) indicates the involvement of distinct conformations for the different agonists. All affinities, potencies, efficacies, and cooperativity parameters were estimated as logarithms (Kenakin et al. 2012).
Five signaling pathways were examined, namely pERK1/2-phosphorylation, Akt1/2/3(Ser473)-phosphorylation, Akt1(Thr308)-phosphorylation, increases in Ca2+i and inhibition of forskolin-induced cAMP accumulation. An operational model of agonism was fitted to each concentration-response curve to estimate a transduction ratio (τ/KA) for each agonist, at each pathway assessed, as described (FIG. 21B) (Kenakin et al. 2012). Transduction ratios were normalized to a reference agonist (Cmpd43) and a reference pathway (Akt1/2/3(Thr308)-phosphorylation), generating bias factors and therefore allowing quantitative cross-pathway comparison for each agonist.

[1] = test system: rFpr1, rFpr2 expression in NRCM; assay: Fpr gene expression in neonatal rat cardiomyocytes (real-time PCR); assay type: cell-based; conditions: 1 μM, 48 h incubation
Procedure: Isolation and culture of primary rat cardiomyocytes and mouse cardiac fibroblasts: All materials used for cell isolation were of tissue culture grade. Isolation of primary neonatal rat cardiac cardiomyocytes (NRCM) and adult mouse cardiac fibroblasts (AMCF) was performed by serial enzymatic digestion, as previously described (Irvine et al 2012 & Irvine et al. 3) NRCM were plated onto either 12-well tissue culture plates (for simulated ischemia-reperfusion, via hypoxia-reoxygenation, H-R) or 60 mm tissue culture dishes (for gene expression) at a density of 1.3×10^5 cells/cm^2, in the presence of 1% 5-bromo-2′-deoxyuridine. AMCF (passage #3) were seeded onto 60 mm tissue culture dishes at 9.5×10^4 cells/cm^2 and allowed to grow to 80% confluence prior to study. Following 48 h in serum-free DMEM, NRCM in 12-well tissue plates were subjected to simulated ischemia, induced by replacement of culture media with sterile-filtered Kreb's buffer (118 mM NaCl, 4.8 mM KCl, 1.2 mM KH2PO4, 1.2 mM MgSO4, 25 mM NaHCO3, […], 11.0 mM glucose, 1.75 mM CaCl2) prior to incubation for 6 h at 37° C. under hypoxia (95% N2-5% CO2, using a hypoxia chamber, QNA International, Melbourne, Australia). At the end of hypoxia, Kreb's buffer was replaced with fresh, sterile-filtered Kreb's buffer, in the presence or absence of FPR agonists Cmpd17b, Cmpd43 (both 1 μM or vehicle, and NRCM were subjected to 48 h reoxygenation at 37° C. At the end of 48 h reoxygenation, NRCM supernatant was collected for assessment of cardiomyocyte injury. Cardiomyocyte release of cTnI was determined using a commercially available, high-sensitivity rat cTnI ELISA kit (Life Diagnostic Inc.) as per the manufacturer's instructions. Separate NRVM on 60 mm dishes were incubated for 48 h at 37° C. in serum-free DMEM, in the presence or absence of FPR agonists Cmpd17b, Cmpd43 (both 1 μM) or vehicle. At the end of 48 h, RNA was extracted and real-time PCR performed (as described previously (Huynh et al. 2012)), to determine the relative gene expression of rat Fprs (rFpr1, rFpr2 and rFpr3, expressed as the threshold cycle number Ct subtracted from the maximum cycle number utilized, 40).

Cc1cc(Cc2cccnc2)c(=O)n(CC(=O)Nc2ccc(Cl)cc2)n1 [MIPS-0010396]
Bias (away from Ca2+i), hFPR1-FlpInCHO cells in vitro (hFPR1): Strong
Biased agonism / bias away from Ca2+i (hFPR1; in words): displays Ca2+i bias

CC(C)C1C(NC(=O)Nc2ccc(Cl)cc2)C(=O)N(c2ccccc2)N1C (centres unmarked) [BIDI-002]
Bias (away from Ca2+i), hFPR1-FlpInCHO cells in vitro (hFPR1): No
Preference to Akt phosphorylation, ERK phosphorylation and cAMP accumulation (degree of bias) (hFPR1; operational model, relative to BIDI-002, hFPR receptors): approximately 20 fold
NRCM expression of rFpr1 [1]: without impact
NRCM expression of rFpr2 [1]: tended to reduce

COc1cccc(Cc2cc(C)nn(C(C)C(=O)Nc3ccc(Br)cc3)c2=O)c1 (centres unmarked) [BIDI-001, N-(4-bromophenyl)-2-[5-(3-methoxybenzyl)-3-methyl-6-oxo-6H-pyridazin-1-yl]-propionamide]
NRCM expression of rFpr1 [1]: did not significantly influence
NRCM expression of rFpr2 [1]: did not significantly influence
